Results published in article PMC8807399, “Synthesis, Characterization, and in vivo Evaluation of a Novel Potent Autotaxin-Inhibitor” (Frontiers in Pharmacology, 2022).

How the values were obtained:
[1] = target: T1, Angiotensin II receptor 1 (Homo sapiens, UniProt P30556); assay: Off-target screen Angiotensin II receptor 1; format: binding; conditions: 10 µM; single point, duplicates
T1 construct: purchased Eurofins CEREP SA

LPA3 receptor = target: T2, LPA3 receptor (Homo sapiens, UniProt Q9UBY5); assay: Off-target screen LPA3 receptor, agonist mode; format: cell-based; conditions: 10 µM, single point, duplicates
T2 construct: purchased Eurofins CEREP SA

Dopamine D2 receptor = target: T3, Dopamine D2 receptor (Homo sapiens, UniProt P14416); assay: Off-target screen Dopamine D2; format: binding; conditions: 10 µM; single point, duplicates
T3 construct: purchased Eurofins CEREP SA

Serotonin transporter = target: T4, Serotonin transporter (Homo sapiens, UniProt P31645); assay: Off-target screen Serotonin transporter; format: binding; conditions: 10 µM; single point, duplicates
T4 construct: purchased Eurofins CEREP SA

[2] = Lipophilicity (LogD, octanol/buffer); format: physicochemical; conditions: 1-octanol / 25 mM phosphate buffer; pH 7.4, octanol/25 mM phosphate buffer
Protocol: The experiment started with the accurate coating of the hydrophobic layer (0.45 µm PVDF membranes), which was fixed on the bottom of each DIFI©-tube (Weidmann Medical Technology AG, Rapperswil, Switzerland). The coated membranes were then connected to a 96-well plate which has been prefilled with exactly 150 µl of the selected aqueous buffer solution (25 mM phosphate buffer, pH 7.4). The buffer solution contains already the compound of interest with a maximum starting concentration of 85 µM. To expand the measurement range down to logD = −0.5 and up to logD = +4, it is necessary to carry out the procedure at two different octanol/water ratios: One with an excess of octanol for hydrophilic compounds (logD < 1) and one with a low volume of octanol for the lipophilic compounds (logD > 1). Therefore, parts of the DIFI©-tubes were filled with 15 µl 1-octanol and another part with 1 µl 1-octanol. The resulting sandwich guarantees that the membrane was completely dipped in the buffer solution. The plate was then sealed and shaken for 12 h at room temperature (23°C). During this time, the substance is distributed between the layer, the octanol, and the buffer solution. After having reached a distribution equilibrium, the DIFI©-tubes were easily disassembled from the top of the 96-well plate, so that the remaining sample concentration in the aqueous phase could be analyzed by LC/MS.

[3] = target: T5, Neprilysin (neutral endopeptidase) (Homo sapiens, UniProt P08473); assay: Off-target screen Neprilysin; format: biochemical; conditions: 10 µM; single point, duplicates
T5 construct: purchased Eurofins CEREP SA

ADAM 17 = target: T6, ADAM 17 (Homo sapiens, UniProt P78536); assay: Off-target screen ADAM 17; format: biochemical; conditions: 10 µM; single point, duplicates
T6 construct: purchased Eurofins CEREP SA

S1P3 = target: T7, S1P3 (Homo sapiens, UniProt Q99500); assay: Off-target screen S1P3, agonist mode; format: cell-based; conditions: 10 µM, single point, duplicates
T7 construct: purchased Eurofins CEREP SA

EAG model rats = assay: Experimental autoimmune glaucoma (EAG) model; format: in vivo, rat; conditions: ONA + ATX-i group; for IOP: 20 mg/kg food admix
Protocol: Calculations of the daily doses were based on average food intake of rats used in the studies. […] After mixing, ethanol was removed in vacuo until dryness.
The regular chow diet for the treatment groups was replaced with the same chow diet containing the treatment substance.
For the EAG model, preparation and immunization of the optic nerve antigen (ONA = bovine optic nerve homogenate) was carried out as previously described ([Laspas et al., 2011]; [Joachim et al., 2013]). Rats received an intraperitoneal injection with 8 mg/ml ONA. The antigen was mixed with incomplete Freund’s adjuvant (500 µl) plus 3 µg pertussis toxin (both Sigma Aldrich, St. Louis, MO, United States). The animals of the control group were injected with NaCl in Freund’s adjuvant and pertussis toxin. Rats were sacrificed 28 days after immunization.
Aqueous humor and serum were collected at the end of the EAG study. IgG levels were measured in serum and aqueous humor samples from the EAG study (both: 6-7 samples/group) using a sandwich enzyme-linked immunosorbent assay (ELISA) kit (eBioscience, Frankfurt, Germany) according to the manufacturer’s instructions. In brief, samples of aqueous humor from both groups were prediluted 1,000- or 2,000-fold in assay buffer, serum samples were diluted 100,000- or 200,000-fold in assay buffer. 75 µl of assay buffer were inserted into each sample well. 25 µl of the prediluted sample were added to the appropriate wells. All samples were incubated, and the absorbance was read at 405 nm using a microplate reader (AESKU.Reader with Gen5 ELISA Software, AESKU.DIAGNOSTICS, Wendelsheim, Germany) ([Reinehr et al., 2018]; [Tsai et al., 2018]).
The IOP was measured in both eyes of each animal in the EAG study with a rebound tonometer (Tonolab; iCare, Oy, Finland) 1 week before as well as 1, 2, and 3 weeks after immunization (n = 5–6 animals/group). The tonometer was held horizontally in front of the animal’s eye ([Pease et al., 2006]). 10 measurements per eye were recorded. From these values, the mean value was calculated ([Reinehr et al., 2019a]).
After explantation, eyes and optic nerves were fixed in 4% paraformaldehyde for 60 min (eyes) or 120 min (optic nerves) and then treated with 30% sucrose overnight. Afterwards, the retinas and optic nerves were embedded in NEG-50 Tissue-Tek medium (Thermo Fisher, Waltham, MA, United States). Cryo-cross sections of the eyes (10 µm) or longitudinal sections of the optic nerves (4 µm) were cut on a microtome (Thermo Fisher), mounted on Histobond Superfrost^+ slides (Thermo Fisher) and fixed in ice cold acetone for 10 min.
Longitudinal optic nerve sections (EAG: 5-6 nerves/group, I/R 14 days: 6-7 nerves/group) were stained with H&E and luxol fast blue (LFB). Of each staining, three areas per optic nerve section were documented with a microscope equipped with a CCD camera (Axio Imager M1; Zeiss) as previously described ([Palmhof et al., 2019]). One photo was taken of the proximal part, one of the middle and one of the distal part, right in front of the chiasma.
Cell infiltration in optic nerve sections stained with H&E was evaluated by using a scoring system ranging from 0 to 4 by a masked observer: 0 = no infiltration; 1 = mild cellular infiltration of the optic nerve or optic nerve sheath; 2 = moderate infiltration; 3 = severe infiltration; and 4 = massive infiltration of the optic nerve parenchyma and nodule infiltration ([Shindler et al., 2006]; [Horstmann et al., 2016]; [Renner et al., 2017]). The average score for each optic nerve was used for statistical analysis.
The grade of demyelination was monitored in optic nerve sections stained with LFB. Therefore, staining was scored from 0 to 2 and categorized as follows: 0 = no demyelination; 0.5 = mild demyelination; 1 = moderate demyelination; 1.5 = advanced demyelination; and 2 = severe demyelination up to dissolution of the tissue.

LPA2 receptor = target: T8, LPA2 receptor (Homo sapiens, UniProt Q9HBW0); assay: Off-target screen LPA2 receptor, antagonist mode; format: cell-based; conditions: 10 µM, single point, duplicates
T8 construct: purchased Eurofins CEREP SA
T8 sequence (Q9HBW0 whole entry): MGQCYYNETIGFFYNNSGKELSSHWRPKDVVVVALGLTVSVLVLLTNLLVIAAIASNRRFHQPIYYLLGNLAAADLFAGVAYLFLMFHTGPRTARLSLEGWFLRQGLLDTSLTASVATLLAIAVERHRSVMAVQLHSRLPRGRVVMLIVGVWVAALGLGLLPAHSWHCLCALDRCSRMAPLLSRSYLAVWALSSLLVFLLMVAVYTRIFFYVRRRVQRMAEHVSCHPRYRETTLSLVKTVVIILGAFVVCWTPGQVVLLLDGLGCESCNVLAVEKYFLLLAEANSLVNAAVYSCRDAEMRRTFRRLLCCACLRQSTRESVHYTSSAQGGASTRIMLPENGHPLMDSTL

T2 sequence (Q9UBY5 whole entry): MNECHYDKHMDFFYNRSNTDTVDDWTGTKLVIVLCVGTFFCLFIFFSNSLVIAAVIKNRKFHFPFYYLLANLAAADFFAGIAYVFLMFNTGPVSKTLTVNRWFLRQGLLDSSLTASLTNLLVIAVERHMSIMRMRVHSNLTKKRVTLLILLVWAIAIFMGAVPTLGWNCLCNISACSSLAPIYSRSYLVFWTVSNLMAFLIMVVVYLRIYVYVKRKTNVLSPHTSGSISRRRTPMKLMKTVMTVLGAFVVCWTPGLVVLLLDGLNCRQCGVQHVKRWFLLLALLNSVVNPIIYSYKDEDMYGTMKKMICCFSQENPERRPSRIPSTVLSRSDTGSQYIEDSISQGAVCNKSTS
T3 sequence (P14416 whole entry): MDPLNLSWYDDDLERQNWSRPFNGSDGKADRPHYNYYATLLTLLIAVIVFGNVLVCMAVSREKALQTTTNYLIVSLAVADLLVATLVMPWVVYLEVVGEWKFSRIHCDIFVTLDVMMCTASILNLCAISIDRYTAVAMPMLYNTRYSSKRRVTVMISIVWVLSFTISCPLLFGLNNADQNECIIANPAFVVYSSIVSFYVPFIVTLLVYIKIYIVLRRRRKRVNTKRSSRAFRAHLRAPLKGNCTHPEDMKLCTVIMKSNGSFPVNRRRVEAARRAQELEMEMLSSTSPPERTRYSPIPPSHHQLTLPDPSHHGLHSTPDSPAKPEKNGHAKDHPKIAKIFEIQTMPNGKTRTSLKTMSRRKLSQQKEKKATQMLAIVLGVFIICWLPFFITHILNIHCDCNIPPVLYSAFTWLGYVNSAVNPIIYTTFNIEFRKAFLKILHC
T6 sequence (P78536 215-824): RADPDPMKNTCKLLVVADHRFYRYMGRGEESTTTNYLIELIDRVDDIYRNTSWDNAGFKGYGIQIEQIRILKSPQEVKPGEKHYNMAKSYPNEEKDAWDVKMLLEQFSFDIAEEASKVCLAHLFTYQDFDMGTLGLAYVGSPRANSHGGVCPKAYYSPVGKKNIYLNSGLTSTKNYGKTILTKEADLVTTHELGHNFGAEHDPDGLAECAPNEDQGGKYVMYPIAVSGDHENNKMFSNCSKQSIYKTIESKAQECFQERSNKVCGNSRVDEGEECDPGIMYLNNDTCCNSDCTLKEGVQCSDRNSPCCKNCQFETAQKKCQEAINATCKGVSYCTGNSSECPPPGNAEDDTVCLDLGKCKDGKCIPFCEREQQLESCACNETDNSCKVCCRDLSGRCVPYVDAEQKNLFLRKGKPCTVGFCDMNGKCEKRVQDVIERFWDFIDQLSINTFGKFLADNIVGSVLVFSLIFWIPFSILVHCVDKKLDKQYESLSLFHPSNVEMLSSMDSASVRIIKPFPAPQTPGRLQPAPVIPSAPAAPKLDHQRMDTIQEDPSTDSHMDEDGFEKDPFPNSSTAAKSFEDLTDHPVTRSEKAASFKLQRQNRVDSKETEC
T1 sequence (P30556 whole entry): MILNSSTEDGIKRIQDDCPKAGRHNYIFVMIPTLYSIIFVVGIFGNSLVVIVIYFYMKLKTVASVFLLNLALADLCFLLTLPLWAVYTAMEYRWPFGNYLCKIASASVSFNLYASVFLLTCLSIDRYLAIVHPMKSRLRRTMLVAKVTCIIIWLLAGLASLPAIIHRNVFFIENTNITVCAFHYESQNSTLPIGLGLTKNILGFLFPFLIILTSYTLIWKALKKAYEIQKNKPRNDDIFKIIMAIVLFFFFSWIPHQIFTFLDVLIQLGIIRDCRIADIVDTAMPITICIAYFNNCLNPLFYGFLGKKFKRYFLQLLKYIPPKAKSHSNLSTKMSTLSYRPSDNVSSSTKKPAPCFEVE
T7 sequence (Q99500 whole entry): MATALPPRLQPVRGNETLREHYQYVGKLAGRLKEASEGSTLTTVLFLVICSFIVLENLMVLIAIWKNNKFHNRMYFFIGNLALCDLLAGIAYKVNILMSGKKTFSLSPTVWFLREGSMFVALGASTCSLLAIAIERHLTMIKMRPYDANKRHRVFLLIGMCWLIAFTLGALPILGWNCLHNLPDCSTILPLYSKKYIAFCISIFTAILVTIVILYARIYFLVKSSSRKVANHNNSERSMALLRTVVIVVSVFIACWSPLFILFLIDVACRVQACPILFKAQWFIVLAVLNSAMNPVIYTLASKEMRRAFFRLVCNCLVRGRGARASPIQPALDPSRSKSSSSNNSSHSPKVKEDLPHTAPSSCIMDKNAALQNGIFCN
T4 sequence (P31645 whole entry): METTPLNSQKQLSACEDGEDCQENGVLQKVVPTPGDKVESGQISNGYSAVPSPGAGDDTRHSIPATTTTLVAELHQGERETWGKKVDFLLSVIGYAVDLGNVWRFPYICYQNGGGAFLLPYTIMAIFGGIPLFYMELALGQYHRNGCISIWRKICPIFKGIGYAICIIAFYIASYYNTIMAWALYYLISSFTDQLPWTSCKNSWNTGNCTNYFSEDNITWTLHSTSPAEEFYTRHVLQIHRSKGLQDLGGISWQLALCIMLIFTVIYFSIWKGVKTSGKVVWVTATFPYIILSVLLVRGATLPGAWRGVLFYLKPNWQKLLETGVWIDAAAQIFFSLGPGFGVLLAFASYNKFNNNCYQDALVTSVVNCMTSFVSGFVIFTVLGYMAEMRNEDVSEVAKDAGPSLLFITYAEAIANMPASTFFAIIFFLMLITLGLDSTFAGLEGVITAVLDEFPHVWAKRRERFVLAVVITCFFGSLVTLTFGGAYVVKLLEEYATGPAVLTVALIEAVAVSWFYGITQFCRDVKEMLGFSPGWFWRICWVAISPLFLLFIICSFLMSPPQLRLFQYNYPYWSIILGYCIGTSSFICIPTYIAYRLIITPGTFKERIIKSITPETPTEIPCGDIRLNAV
T5 sequence (P08473 whole entry): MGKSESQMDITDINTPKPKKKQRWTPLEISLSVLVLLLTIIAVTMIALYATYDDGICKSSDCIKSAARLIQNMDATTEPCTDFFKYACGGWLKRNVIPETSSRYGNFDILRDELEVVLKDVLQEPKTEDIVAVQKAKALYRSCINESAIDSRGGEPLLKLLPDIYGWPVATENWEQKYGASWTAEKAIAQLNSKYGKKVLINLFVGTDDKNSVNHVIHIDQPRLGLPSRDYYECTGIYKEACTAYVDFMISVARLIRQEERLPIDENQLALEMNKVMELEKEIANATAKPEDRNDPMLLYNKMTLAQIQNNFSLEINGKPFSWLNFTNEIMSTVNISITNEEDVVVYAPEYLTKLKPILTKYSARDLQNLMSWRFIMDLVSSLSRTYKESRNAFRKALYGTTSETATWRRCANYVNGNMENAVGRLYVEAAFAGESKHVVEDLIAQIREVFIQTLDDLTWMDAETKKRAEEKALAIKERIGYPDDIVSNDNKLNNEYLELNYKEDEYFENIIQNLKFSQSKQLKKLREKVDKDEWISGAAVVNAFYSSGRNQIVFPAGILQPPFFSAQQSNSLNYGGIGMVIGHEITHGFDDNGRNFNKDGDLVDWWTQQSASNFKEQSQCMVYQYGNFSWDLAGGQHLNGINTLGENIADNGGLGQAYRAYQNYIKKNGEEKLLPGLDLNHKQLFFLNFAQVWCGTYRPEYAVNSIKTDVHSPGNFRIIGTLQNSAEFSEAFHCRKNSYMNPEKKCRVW

O=C(OCc1ccc(OC(F)(F)F)cc1)N1C[C@@H]2CN(C(=O)c3ccc4[nH]nnc4c3)C[C@H]2C1 [Compound 13, (3aS,6aS)-5-(1H-Benzotriazole-5-carbonyl)-hexahydro-pyrrolo[3,4-c]pyrrole-2-carboxylic acid 4-trifluoromethoxy-benzyl ester]
Angiotensin II receptor 1 (h) [% inhib] [1]: 14 % inhib | LPA3 receptor (h), agonist mode [% pos ctrl] (LPA3 receptor): -3 % pos ctrl | Dopamine D2 receptor (h) [% inhib] (Dopamine D2 receptor): 4 % inhib | Serotonin transporter (h) [% inhib] (Serotonin transporter): 28 % inhib | logD at 12 h [2]: 3.2 | Neprilysin (neutral endopeptidase) (h) [% inhib] [3]: -29 % inhib | ADAM 17 (h) [% inhib] (ADAM 17): 9 % inhib | S1P3 (h), agonist mode [% pos ctrl] (S1P3): 8 % pos ctrl | IOP (EAG model rats; 1 week after immunization, ONA 10.44 ± 0.62, control 11.26 ± 0.54): 10.54 ± 0.40 mmHg | IOP (EAG model rats; 1 week before immunization, ONA 10.34 ± 0.67, control 10.36 ± 1.03): 10.91 ± 0.50 mmHg | IOP (EAG model rats; 2 weeks after immunization, ONA 10.74 ± 0.55, control 11.36 ± 0.52): 10.85 ± 0.42 mmHg | IOP (EAG model rats; 3 weeks after immunization, ONA 10.77 ± 0.77, control 11.47 ± 0.62): 10.69 ± 0.60 mmHg | ED1+ and Iba1+ active microglia, optic nerve (EAG model rats; 28 days, ONA 0.27 ± 0.24, control 0.06 ± 0.11): 0.22 ± 0.10 cells/image | Iba1+ microglia, optic nerve (EAG model rats; 28 days, ONA 3.14 ± 0.94, control 1.28 ± 0.15): 2.96 ± 0.92 cells/image | ED1+ and Iba1+ microglia, retina (EAG model rats; 28 days, ONA 7.70 ± 6.27, control 1.52 ± 1.28): 5.08 ± 1.86 cells/mm | GFAP area, retina (EAG model rats; 28 days, ONA 13.55 ± 3.42, control 9.72 ± 0.84): 10.30 ± 2.29 area [%]/section | Iba1+ microglia cell count, retina (EAG model rats; 28 days, ONA 22.06 ± 7.81, control 13.67 ± 3.04): 19.76 ± 2.82 cells/mm | Brn-3a+ RGC number, retina (EAG model rats; 28 days, ONA 29.47 ± 6.20, control 58.11 ± 4.22, p = 0.032 vs ONA): 38.59 ± 4.33 cells/mm | Optic nerve LFB score (EAG model rats; 28 days, score 0-2, ONA 0.58 ± 0.20, control 0.31 ± 0.13): 0.77 ± 0.66 | GFAP score, optic nerve (EAG model rats; 28 days, score 0-2, ONA 0.81 ± 0.17, control 0.71 ± 0.26): 1.00 ± 0.29 | Optic nerve SMI-32 score (EAG model rats; 28 days, score 0-2, ONA 0.91 ± 0.08, control 0.58 ± 0.14): 0.75 ± 0.19 | Optic nerve H&E score (EAG model rats; 28 days, score 0-4, ONA 1.22 ± 0.43, control 0.80 ± 0.51): 1.27 ± 0.86 | Serum IgG level (EAG model rats; end of EAG study, ONA 15.78 ± 5.00, control 8.31 ± 5.76): 12.30 ± 2.70 mg/mL | Aqueous humor IgG level (EAG model rats; end of EAG study, ONA 272.24 ± 98.17, control 62.31 ± 19.91, p = 0.025 vs ONA): 167.26 ± 34.50 µg/mL | LPA2 receptor (h), antago. mode [% inhib] (LPA2 receptor): 49 % inhib
